{
  "source": "paper PMC8305652",
  "about": "“Copper(II) Complexes Containing Natural Flavonoid Pomiferin Show Considerable In Vitro Cytotoxicity and Anti-inflammatory Effects” (International Journal of Molecular Sciences, 2021)",
  "key": {"[1]": {"test_system": "caspases 3/7 in A2780 cells", "test": "activation of caspases 3/7, flow cytometry", "assay_type": "cell-based, human", "settings": "A2780, 15 µM, 24 h", "procedure": "Both methods were performed according to the manufacturers’ protocols with 1 modification in the caspase induction assay, which was the use of the CellEvent^TM Caspase-3/7 Green Detection Reagent only for detection of Caspase-3/7 activation. […] After 24 h, the cells were washed once with PBS (0.1 M, pH 7.4), detached with trypsin (0.25% in ethylenediaminetetraacetic acid (EDTA), Sigma-Aldrich), resuspended in 500 µL of the culture medium and divided into 2 separate tubes, the first for apoptosis assay and the second one for caspase activation analysis. After staining with appropriate dyes, samples were analyzed on a BD FACSVerse flow cytometer (Becton Dickinson, Franklin Lakes, NJ, USA) in 3 separate experiments, while at least 10^4 events were recorded for each sample prepared in duplicate."}, "[2]": {"test_system": "ACHN, NCI-H23, PC-3, MDA-MB-231, LOX-IMVI, colon carcinoma cell lines", "set-up": "method as in PMID 17662606", "settings": "24 h of incubation, range over cell lines; cited from earlier work"}, "[3]": {"test_system": "caspase 3 (Casp-3) in THP-1 cells", "test": "Western blotting of apoptosis-related proteins", "assay_type": "cell-based, human", "settings": "THP-1, complexes 4 µM, 24 h, Western blot", "procedure": "In addition to the above-mentioned methods, the Western blotting method was used to shed light on the mechanisms associated with caspase 3 activation in the THP-1 cells. Two and a half milliliters of floating THP-1 monocytes resuspended in a serum-free RPMI 1640 medium were seeded into 6-well plates at the concentration of 10^6 cells/mL. Two hours later, complexes 3 and 5 were added at the concentration level of 4 µM. After 24 h incubation, the cells were collected by centrifugation (3000 g/5 min/4 °C), washed by cold PBS and resuspended in an ice-cold lysis buffer (50 mM Tris-HCl pH 7.5, 1 mM EGTA, 1 mM EDTA, 1 mM sodium orthovanadate, 50 mM sodium fluoride, 5 mM sodium pyrophosphate, 270 mM sucrose) with Roche cOmplete protease inhibitors (Roche Diagnostics, Basel, Switzerland). The cell lysates were centrifuged at 3000 g/5 min/4 °C and supernatants were mixed with a 5x Laemmli buffer [containing 250 mM Tris-HCl pH 6.8, 10% (w/v) SDS, 30% (v/v) glycerol, 5% (v/v) β-mercaptoethanol, 0.04% (w/v) bromphenol blue] and incubated at 70 °C for 5 min. […] The membranes were incubated at 4 °C for 16 h with a primary anti-cleaved caspase 3 (p17) antibody at the dilution 1:1000 (Cell Signaling, Danvers, MA, USA; products No. 9664), and an Apoptosis WB Cocktail (Abcam, Cambridge, UK; product No. ab136812) at the dilution recommended by the provider to detect β-actin, cleaved poly-(ADP-ribose) polymerase (PARP) and pro-caspase 3. After washing in a TBST buffer, the secondary anti-rabbit IgG antibody (Sigma-Aldrich, product No. A0545) was diluted 1:2500 and applied to the membranes, which were then incubated for 1 h at the laboratory temperature (~22 °C). The amount of bound secondary antibody was determined using an ECL reagent (Bio-Rad, Hercules, CA, USA). Chemiluminescence was detected using a Syngene PXi4 chemiluminescence imaging system (Cambridge, UK)."}},
  "data": [
    {"compound": "CC(C)=CCc1c2c(c3occ(-c4ccc(O)c(O)c4)c(=O)c3c1[O-])C=CC(C)(C)O2.CO.O=[N+]([O-])[O-].[Cu+2].c1ccc(-c2ccnc3c2ccc2c(-c4ccccc4)ccnc23)cc1", "note": "[Complex 4, (3-(3,4-dihydroxyphenyl)-8,8-dimethyl-6-(3-methylbut-2-en-1-yl)-4H,8H-benzo[1,2-b:3,4-b′]dipyran-4-one-5-olato-κ^2O4:O5)(4,7-diphenyl-1,10-phenanthroline–κ^2N:N)copper(II) nitrate methanol solvate]", "values": [
      {"measurement": "activation of executioner caspases 3/7", "setting": "[1]", "value": "significantly increase the antiproliferative effects over the free pomiferin and reference drug cisplatin"}
    ]},
    {"compound": "CC(C)=CCc1c2c(c3occ(-c4ccc(O)c(O)c4)c(=O)c3c1O)C=CC(C)(C)O2", "note": "[pomiferin, 3-(3,4-dihydroxyphenyl)-5-hydroxy-8,8-dimethyl-6-(3-methylbut-2-ene-1-yl)-4H,8H-benzo[1,2-b:3,4-b′]dipyran-4-one]", "values": [
      {"measurement": "GI50", "setting": "[2]", "value": "1.32 to 13.3", "unit": "µM"}
    ]},
    {"compound": "(3-(3,4-dihydroxyphenyl)-8,8-dimethyl-6-(3-methylbut-2-en-1-yl)-4H,8H-benzo[1,2-b:3,4-b′]dipyran-4-one-5-olato-κ^2O4:O5)(dipyrido[3,2-a:2′,3′-c]phenazine–κ^2N4:N5)copper(II) nitrate methanol solvate [Complex 5]", "values": [
      {"measurement": "levels of pro-caspase 3 (pro-Casp-3)", "setting": "[3]", "value": "dramatically decreased"},
      {"measurement": "proteolytically activated Casp-3 (verified by cleaved PARP-1)", "setting": "[3]; cisplatin 10 µM", "value": "only minor activity of Casp-3"}
    ]}
  ]
}
